Experimental data from patent US7772226B2, “Condensed imidazole derivatives” (Eisai R&D Management Co., Ltd., priority 2002, dated 2010).

What was measured:
[1] = system: male Wistar rats; assay: Effect of a Test Compound on the Blood Glucose Level of Fasted Male Wistar Rats; type: in vivo; conditions: oral dose of 10-30 (mg/kg), 0.5, 1 and 3 hours after administration, compared with control group treated with the medium alone
Experimental: Purpose: Effect of a Test Compound on the Blood Glucose Level of Fasted Male Wistar Rats
Animal: male Wistar rats (purchased from Charles River Japan, Inc.)
A test compound was suspended in 0.5% methyl cellulose (MC) solution and administered orally at a dose of 5 mL/kg. The control group was treated with a 0.5% MC solution. The solution was administered orally at a dose of 5 mL/kg.
Immediately before administering a test compound or 0.5% MC solution, and 0.5, 1, and 3 hours after the administration, without anesthetic the caudal vein was lightly cut with a razor blade to let the blood out. 10 μL of blood was collected and combined with 140 μL of 0.6 M perchloric acid solution. The sample was centrifuged at 3000 g at 4° C. for 10 minutes and the resultant supernatant was assayed with the Glucose CII TEST WAKO (Wako Pure Chemical Industries).

[2] = system: male C57BL/6N mice; assay: Acceptable Timing of Administration in In Vivo Test; conditions: oral; given simultaneously with vs one hour before glucose loading (2 g/kg); improvement factor for glucose tolerance compared
Experimental: Acceptable Timing of Administration in In Vivo Test
The respective tests described below were carried out in combination with the in vivo test (administration before 0.5 hour) as described in Assay Example 2:
1. A test compound is administered simultaneously with glucose loading (2 g/kg) (the test compound is suspended in an aqueous solution of 0.5% methyl cellulose; the solution is combined with an equal volume of a glucose solution; and the mixture is administered orally at a dose of 10 ml/kg);
2. A test compound is administered one hour before glucose loading (2 g/kg) (the test compound suspended in an aqueous solution of 0.5% methyl cellulose is administered orally one hour before the oral administration of the glucose solution; each is given orally at a dose of 10 ml/kg).
The improvement factor for glucose tolerance is estimated in each test.

[3] = target: T1, Porcine kidney-derived DPP-IV (Sus scrofa, UniProt P22411); assay: DPPIV-inhibiting Activity Assay; type: biochemical; conditions: substrate Gly-Pro-p-nitroanilide 0.33 mM, absorbance at 405 nm
T1 construct: Porcine kidney-derived DPP-IV was dissolved in a reaction buffer; from tissue; host or cells: porcine kidney
T1 sequence (P22411 whole entry): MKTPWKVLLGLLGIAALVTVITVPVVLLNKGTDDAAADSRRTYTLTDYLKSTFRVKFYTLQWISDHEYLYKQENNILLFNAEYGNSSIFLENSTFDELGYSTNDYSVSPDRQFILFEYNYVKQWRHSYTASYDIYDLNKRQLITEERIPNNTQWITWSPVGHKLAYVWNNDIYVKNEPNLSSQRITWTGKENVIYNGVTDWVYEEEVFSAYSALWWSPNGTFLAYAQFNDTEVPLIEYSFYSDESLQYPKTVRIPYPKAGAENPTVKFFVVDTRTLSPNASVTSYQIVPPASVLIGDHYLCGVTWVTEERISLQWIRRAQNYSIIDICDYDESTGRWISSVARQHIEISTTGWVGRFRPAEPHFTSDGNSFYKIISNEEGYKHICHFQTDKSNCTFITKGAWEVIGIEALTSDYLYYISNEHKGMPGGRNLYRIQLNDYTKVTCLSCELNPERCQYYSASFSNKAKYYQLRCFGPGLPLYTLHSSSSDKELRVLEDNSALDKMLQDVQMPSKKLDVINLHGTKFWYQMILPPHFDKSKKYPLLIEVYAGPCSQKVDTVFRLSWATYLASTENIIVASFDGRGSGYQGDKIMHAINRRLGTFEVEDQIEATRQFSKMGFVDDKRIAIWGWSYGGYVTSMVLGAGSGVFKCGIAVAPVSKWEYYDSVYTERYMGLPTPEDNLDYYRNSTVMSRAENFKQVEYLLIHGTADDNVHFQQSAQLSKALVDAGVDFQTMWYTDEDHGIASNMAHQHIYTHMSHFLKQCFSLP
Experimental: DPPIV-inhibiting Activity Assay
Porcine kidney-derived DPP-IV was dissolved in a reaction buffer (50 mM Tris-HCl (pH 7.4)/0.1% BSA) at a concentration of […]. After 110 μl of this solution had been combined with 15 μl of an agent, the mixture was incubated at room temperature for 20 minutes. 25 μl of 2 mM Gly-Pro-p-nitroanilide was added (to a final concentration of 0.33 mM) to the solution to initiate the enzyme reaction. The reaction time was 20 minutes. 25 μl of 1N phosphoric acid solution was added to the reaction solution to quench the reaction.

Molecule | change in the blood glucose level [1] | range of acceptable timing of administration [2] | IC50 [3]
CC#CCn1c(N2CCNCC2)nc2nc(C#N)n(Cc3ccccc3C#N)c(=O)c21.Cl [Example 229, 7-(2-Butynyl)-1-(2-cyanobenzyl)-6-oxo-8-(piperazin-1-yl)-6,7-dihydro-1H-purine-2-carbonitrile hydrochloride] | no significant change | sufficiently wide ranges of acceptable timing of administration | –
CC#CCn1c(N2CCNCC2)nc2nc(Oc3ccccc3C(N)=O)n(C)c(=O)c21 [Example 122, 2-[7-(2-Butynyl)-1-methyl-6-oxo-8-(piperazin-1-yl)-6,7-dihydro-1H-purin-2-yloxy]benzamide] | no significant change | sufficiently wide ranges of acceptable timing of administration | –
CC#CCn1c(N2CCCC(N)C2)nc2cnn(C)c(=O)c21.O=C(O)C(F)(F)F (stereo not shown) [Example 120, 2-(3-Aminopiperidin-1-yl)-3-(2-butynyl)-5-methyl-3,5-dihydroimidazo[4,5-d]pyridazin-4-one trifluoroacetate] | no significant change | sufficiently wide ranges of acceptable timing of administration | –
CC#CCn1c(N2CCNCC2)nc2cnn(Cc3ccccc3C#N)c(=O)c21.O=C(O)C(F)(F)F [Example 267, 2-[3-(2-Butynyl)-4-oxo-2-(piperazin-1-yl)-3,4-dihydroimidazo[4,5-d]pyridazin-5-ylmethyl]benzonitrile trifluoroacetate] | no significant change | sufficiently wide ranges of acceptable timing of administration | –
CC#CCn1c(N2CCNCC2)nc2cnn(C)c(=O)c21 [Example 119, 3-(2-Butynyl)-5-methyl-2-(piperazin-1-yl)-3,5-dihydroimidazo[4,5-d]pyridazin-4-one] | no significant change | sufficiently wide ranges of acceptable timing of administration | –
Methyl 2-[7-(2-butynyl)-1-methyl-6-oxo-8-(piperazin-1-yl)-6,7-dihydro-1H-purin-2-yloxy]phenylacetate trifluoroacetate [Example 4] | – | – | 211 nM
CC#CCn1c(N2CCNCC2)nc2nc(C#N)n(C)c(=O)c21.O=C(O)C(F)(F)F [Example 82, 7-(2-Butynyl)-2-cyano-1-methyl-8-(piperazin-1-yl)-1,7-dihydropurin-6-one trifluoroacetate] | no significant change | sufficiently wide ranges of acceptable timing of administration | –
